Experimental data from patent publication US8084467B2, “Pyrazole derivatives as cannabinoid receptor antagonists” (University of Connecticut, priority 2004, dated 2011).

Columns and labels:
CB2 receptor = target: T1, CB2 receptor (Mus musculus, UniProt P47936); assay: CB2 receptor binding, mouse spleen membranes, same manner as the CB1 binding assay; conditions: mouse spleen membranes, [3H] CP-55,940; read-out: affinities Ki CB2
T1 construct: membranes were prepared from frozen mouse spleen; from tissue; host or cells: mouse spleen
T1 sequence (P47936 whole entry): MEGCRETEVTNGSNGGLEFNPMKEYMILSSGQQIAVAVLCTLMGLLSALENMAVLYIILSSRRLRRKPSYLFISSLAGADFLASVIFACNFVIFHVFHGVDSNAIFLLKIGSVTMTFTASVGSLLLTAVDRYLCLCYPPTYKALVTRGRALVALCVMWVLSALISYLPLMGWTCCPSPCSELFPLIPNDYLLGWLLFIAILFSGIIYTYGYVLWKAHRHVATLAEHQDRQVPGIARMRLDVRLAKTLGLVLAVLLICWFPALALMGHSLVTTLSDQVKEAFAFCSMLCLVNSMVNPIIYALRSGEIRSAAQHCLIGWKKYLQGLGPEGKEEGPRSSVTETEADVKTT
Experimental: Some of the inventive analogs were tested for CB2 receptor binding affinity and for CB1 receptor affinity (to determine selectivity). […] The lower the Ki value the higher the binding affinity.
(§1) The treated membranes were subsequently used in the binding assay described below. Approximately 30 μg of membranes were incubated in silanized 96-well microtiter plate with TME containing 0.1% essentially fatty acid-free bovine serum albumin (BSA), 0.8 nM [^3H] […] Radioactivity was detected using MicroScint 20 scintillation cocktail added directly to the dried filterplates, and the filterplates were counted using a Packard Instruments Top-Count. […] Data collected from three independent experiments performed with duplicate determinations was normalized between 100% and 0% specific binding for [^3H] […] The normalized data was analyzed using a 4-parameter nonlinear logistic equation to yield IC50 values.
Silanized centrifuge tubes were used throughout to minimize receptor loss due to adsorption. The CB2 binding assay was conducted in the same manner as for the CB1 binding assay. The binding affinities (Ki) were also expressed in nanomoles (nM).

rats = assay: Food-reinforced lever pressing in trained rats; type: in vivo, rat; conditions: IP, various dosages, tested ten minutes after injection, FIG. 1, p<0.05
Experimental: 11 rats were trained to press a lever five times to receive a 45 mg food pellet. The training continued over a time period of several weeks. After the training period all rats received drug treatments once per week. The specific rat receiving a drug treatment and the dosage given were each randomly varied. The treatments comprised administration of a vehicle control solution or various dosages of inventive compound 1-5 in combination with the vehicle control solution. All injections were given IP. Ten minutes after injection the rat was placed in proximity to the lever.
FIG. 1 illustrates a mean (±SEM) number of lever presses in 30 min for treated animals. […] FIG. 1 illustrates a classic dose response curve wherein as the dose of drug (inventive compound 1-5) increases, lever pressing consistently decreases. Without wishing to be bound to any theory, applicants believe that inventive compound 1-5 antagonizes (blocks) the CB1 receptors, thereby suppressing appetite and leading to decreased lever pressing.

CB1 cannabinoid receptor = target: T2, CB1 cannabinoid receptor (Rattus norvegicus, UniProt P20272); assay: CB1 receptor binding, rat forebrain membranes, [3H] CP-55,940 displacement
T2 construct: membranes were prepared from rat forebrain membranes; from tissue; host or cells: rat forebrain
T2 sequence (P20272 whole entry): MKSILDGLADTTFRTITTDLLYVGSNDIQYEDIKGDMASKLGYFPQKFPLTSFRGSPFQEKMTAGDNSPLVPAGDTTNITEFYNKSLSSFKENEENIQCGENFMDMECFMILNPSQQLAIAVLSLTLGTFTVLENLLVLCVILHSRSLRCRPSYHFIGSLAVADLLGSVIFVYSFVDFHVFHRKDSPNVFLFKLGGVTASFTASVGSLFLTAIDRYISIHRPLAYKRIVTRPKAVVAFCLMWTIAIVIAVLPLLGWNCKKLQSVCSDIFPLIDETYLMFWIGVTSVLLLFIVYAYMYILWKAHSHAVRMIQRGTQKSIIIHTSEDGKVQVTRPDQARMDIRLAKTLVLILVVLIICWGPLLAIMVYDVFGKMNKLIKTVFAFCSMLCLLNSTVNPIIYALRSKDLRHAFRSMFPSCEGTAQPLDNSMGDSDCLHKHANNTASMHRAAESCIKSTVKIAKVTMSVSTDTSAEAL
Experimental: Some of the inventive analogs were tested for CB2 receptor binding affinity and for CB1 receptor affinity (to determine selectivity). […] The lower the Ki value the higher the binding affinity. […]
Membranes, previously frozen at −80° C., were thawed on ice. To the stirred suspension was added three volumes of TME (25 mM Tris-HCl buffer, 5 mM MgCl2 and 1 mM EDTA) at a pH 7.4. The suspension was incubated at 4° C. for 30 min. At the end of the incubation, the membranes were pelleted and washed three times with TME.
as §1

Ki (CB2 receptor): 2310 nM | Ki (CB1 cannabinoid receptor; rat forebrain membranes, 0.8 nM [3H] CP-55,940, read-out: affinities Ki CB1): 5.8 nM | selectivity CB1 (CB1 cannabinoid receptor; ratio of CB2 Ki to CB1 Ki): 398
Structure (SMILES): O=C(NN1CCCCC1)c1nn(-c2ccc(Cl)cc2Cl)c(-c2ccc(-c3cccnc3)cc2)c1CO [Compound 1-5]
suppression of food-reinforced lever pressing (number of lever presses in 30 min) (rats): suppression of food-reinforced lever pressing was statistically significant
